Source: ChEMBL document CHEMBL1201862, “PubChem BioAssay data set” (2004)
Active and inactive are the calls of the source.

Assays:
[1] = biological target: T1, Alkaline phosphatase, tissue-nonspecific isozyme (Homo sapiens, UniProt P05186); test: activation of tissue-nonspecific alkaline phosphatase – biochemical, TNAP isozyme, human IAP uHTS hits, selectivity assay for human IAP activator project, dose response (AID 488886); type: functional;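 also: potency of compounds raising TNAP activity as a selectivity check on IAP activators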
T1 sequence (P05186 whole entry): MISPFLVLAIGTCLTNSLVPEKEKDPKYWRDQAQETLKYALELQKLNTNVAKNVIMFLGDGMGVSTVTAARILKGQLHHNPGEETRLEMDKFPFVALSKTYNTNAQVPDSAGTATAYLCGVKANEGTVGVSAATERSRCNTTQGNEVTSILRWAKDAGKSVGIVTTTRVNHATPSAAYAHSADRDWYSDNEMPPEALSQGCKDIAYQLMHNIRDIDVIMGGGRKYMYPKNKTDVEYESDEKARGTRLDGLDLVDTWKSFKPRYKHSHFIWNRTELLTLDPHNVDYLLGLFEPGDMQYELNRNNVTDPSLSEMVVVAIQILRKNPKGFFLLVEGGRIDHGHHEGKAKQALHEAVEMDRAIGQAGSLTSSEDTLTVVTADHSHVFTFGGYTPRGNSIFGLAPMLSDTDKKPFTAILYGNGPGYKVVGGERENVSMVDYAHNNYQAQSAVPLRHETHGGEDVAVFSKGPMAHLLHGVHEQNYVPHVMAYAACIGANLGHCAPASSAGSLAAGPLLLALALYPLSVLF

[2] = biological target: Intestinal-type alkaline phosphatase (Mus musculus, UniProt P24822); test: PubChem AID 488874; type: functional
[3] = biological target: T2, Intestinal-type alkaline phosphatase (Homo sapiens, UniProt P09923); test: human intestinal alkaline phosphatase activators, dose response, biochemical, luminescence, uHTS hits (AID 463120); type: functional
[4] = biological target: T2, Intestinal-type alkaline phosphatase; test: activation of human intestinal alkaline phosphatase – biochemical, luminescent, uHTS hits, set 2, dose response (AID 488817); type: functional;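 also: potency of activators that raise enzyme activity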
SUMO-activating enzyme [5] = biological target: T3, SUMO-activating enzyme (Homo sapiens, UniProt Q9UBT2); test: blockers of SAE1/SAE2–UBC9 SUMO transfer – biochemical, HTRF, uHTS, primary screen (AID 2006); type: protein-complex assay
SUMO-activating enzyme [6] = biological target: T3, SUMO-activating enzyme; test: blockers of UBC9-mediated SUMO conjugation – biochemical, AlphaScreen, SUMOylation inhibitor project, confirmation (AID 2018); type: functional
Genome polyprotein = Genome polyprotein (Hepatitis C virus, UniProt Q2Q167); test: disruption of hepatitis C core self-association – biochemical, TR-FRET, dose response (AID 2159); set-up: species or system Hepacivirus hominis;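 also: blocks dimerization of HCV core protein measured by TR-FRET between tagged core106 pairs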
[7] = biological target: Induced myeloid leukemia cell differentiation protein Mcl-1 (Homo sapiens, UniProt Q07820); type: functional
[8] = biological target: Eukaryotic translation initiation factor 4E (Mus musculus, UniProt P63073); test: blockers of eIF4G binding by eIF4E – biochemical, TR-FRET, dose response (AID 855); type: functional;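 also: potency for disrupting eIF4E binding to eIF4GI seen as loss of FRET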
Cytochrome P450 2C9 = Cytochrome P450 2C9 (Homo sapiens, UniProt P11712)
Cytochrome P450 3A4 = Cytochrome P450 3A4 (Homo sapiens, UniProt P08684);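 also: CYP3A4 tested as one member of a cytochrome P450 panel screen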
Cytochrome P450 1A2 = biological target: T4, Cytochrome P450 1A2 (Homo sapiens, UniProt P05177);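 also: PubChem cytochrome P450 panel assay, CYP1A2 panel member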
T4 sequence (P05177 whole entry): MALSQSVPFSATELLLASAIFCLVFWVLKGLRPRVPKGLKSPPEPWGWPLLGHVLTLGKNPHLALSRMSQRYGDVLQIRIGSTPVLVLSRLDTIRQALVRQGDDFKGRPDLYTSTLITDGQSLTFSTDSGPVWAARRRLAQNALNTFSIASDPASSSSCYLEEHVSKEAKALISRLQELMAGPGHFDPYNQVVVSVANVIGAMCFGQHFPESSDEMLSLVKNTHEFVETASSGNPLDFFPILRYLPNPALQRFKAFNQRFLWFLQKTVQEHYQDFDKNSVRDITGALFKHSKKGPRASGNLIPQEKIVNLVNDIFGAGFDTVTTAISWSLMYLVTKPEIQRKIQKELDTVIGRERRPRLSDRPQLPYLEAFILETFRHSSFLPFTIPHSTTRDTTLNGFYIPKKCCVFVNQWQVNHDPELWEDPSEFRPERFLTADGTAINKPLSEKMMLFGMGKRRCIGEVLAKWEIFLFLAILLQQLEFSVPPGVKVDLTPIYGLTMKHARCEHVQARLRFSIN

Cytochrome P450 2C19 = Cytochrome P450 2C19 (Homo sapiens, UniProt P33261); test: Cytochrome panel assay with activity outcomes. Panel member name: p450-cyp2c19 Compounds with AC50 equal or less than 10 uM are considered active; type: functional; conditions: read-out: AC50
[9] = Trypanosoma cruzi growth suppression in host cells – NIH3T3 host cells, beta-gal luminescence, confirmation (AID 2044); type: functional, cell-based;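 also: intracellular parasites grown in NIH/3T3 mouse fibroblasts as host cells; luminescent beta-galactosidase reporter signal from transgenic T. cruzi replicating inside host cells; inhibitors lower the luminescence signal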
[10] = biological target: T5, DNA repair and recombination protein RAD54-like (Homo sapiens, UniProt Q92698); test: RAD54 Holliday junction migration blockers – biochemical, fluorescence, cherry-picked samples, dose series, confirmation (AID 651657); type: functional
T5 sequence (Q92698 whole entry): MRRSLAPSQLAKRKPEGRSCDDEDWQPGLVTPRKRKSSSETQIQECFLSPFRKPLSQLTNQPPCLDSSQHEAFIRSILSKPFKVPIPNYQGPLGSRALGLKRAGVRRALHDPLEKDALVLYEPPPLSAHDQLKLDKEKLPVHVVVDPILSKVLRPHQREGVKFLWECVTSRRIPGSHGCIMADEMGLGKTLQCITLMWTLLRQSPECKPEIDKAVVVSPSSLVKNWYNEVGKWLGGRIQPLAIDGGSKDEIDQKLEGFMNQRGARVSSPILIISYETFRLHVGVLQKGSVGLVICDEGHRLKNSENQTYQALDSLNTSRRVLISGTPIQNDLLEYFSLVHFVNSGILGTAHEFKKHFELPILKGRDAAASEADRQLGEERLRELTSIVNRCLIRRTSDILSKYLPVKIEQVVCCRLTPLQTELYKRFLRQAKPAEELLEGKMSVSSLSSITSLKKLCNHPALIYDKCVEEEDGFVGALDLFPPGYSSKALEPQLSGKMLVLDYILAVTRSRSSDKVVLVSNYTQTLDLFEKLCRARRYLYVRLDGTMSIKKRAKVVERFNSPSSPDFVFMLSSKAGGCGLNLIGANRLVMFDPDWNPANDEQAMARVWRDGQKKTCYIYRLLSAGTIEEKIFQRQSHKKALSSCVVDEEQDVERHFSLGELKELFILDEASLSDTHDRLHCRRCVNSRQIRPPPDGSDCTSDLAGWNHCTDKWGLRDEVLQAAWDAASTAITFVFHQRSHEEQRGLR

[11] = decrease of insulin promoter-GFP reporter – imaging, high-content screening, mouse beta cells (AID 1628); type: functional; conditions: MIN6
Vero = test: cells; type: functional; conditions: Chlorocebus sabaeus
[12] = MIN6 cell viability loss – mouse insulinoma, cytotoxicity control, dose response (AID 2122); type: functional;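 also: confirmatory high-throughput counterscreen run to flag cytotoxic compounds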
[13] = NIH3T3 cell viability loss – ATP luminescence, mouse fibroblasts, counter-screen, dose response (AID 2010); type: functional, cell-based;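 also: cells exposed to compound for about 90 hours before reading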
Jurkat = test: SAR Analysis of small molecule inhibitors of […] specific antigen receptor-induced NF-kB activation in a Jurkat cell line using a luminescence assay - Set 3. [Related pubchem assays (depositor defined):AID435022, AID435025, AID465]; type: functional, cell-based; conditions: Homo sapiens
HEK293 [14] = test: SAR Analysis of small molecule inhibitors of B-cell specific antigen receptor-induced NF-kB activation in a HEK-293T cell line using a luminescence assay - Set 2. [Related pubchem assays (depositor defined):AID435022, AID435025, AID489021]; type: functional, cell-based; conditions: Homo sapiens
HEK293 [15] = test: HEK293T cell viability loss, resazurin readout – resazurin fluorescence, cytotoxicity control for NF-kB activator project, SAR follow-up (AID 493251); type: functional, cell-based; conditions: Homo sapiens
[16] = biological target: Dual specificity protein phosphatase 3 (Homo sapiens, UniProt P51452); test: VHR phosphatase inhibition, dose response, selectivity assay for STEP inhibitor project, biochemical (AID 602374); type: functional; conditions: read-out: IC50_Mean
[17] = biological target: T6, Carboxy-terminal domain RNA polymerase II polypeptide A small phosphatase 1 (Homo sapiens, UniProt Q9GZU7); test: CTDSP1 inhibitors, concentration-response, biochemical, absorbance readout, ultra-high-throughput screen actives (AID 540297); type: functional
T6 sequence (Q9GZU7 whole entry): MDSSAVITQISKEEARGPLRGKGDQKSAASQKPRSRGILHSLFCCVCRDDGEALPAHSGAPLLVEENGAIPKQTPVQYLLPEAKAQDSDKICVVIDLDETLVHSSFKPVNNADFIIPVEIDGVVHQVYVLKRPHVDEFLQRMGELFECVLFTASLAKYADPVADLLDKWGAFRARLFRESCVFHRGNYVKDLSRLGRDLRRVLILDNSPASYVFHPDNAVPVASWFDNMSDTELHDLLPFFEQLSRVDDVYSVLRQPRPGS

[18] = biological target: T7, Tyrosine-protein phosphatase non-receptor type 5 (Homo sapiens, UniProt P54829); test: PTPN5 enzyme inhibition – biochemical, fluorescence intensity, uHTS hits, confirmation (AID 602372); type: functional; conditions: read-out: IC50_Mean
T7 sequence (P54829 whole entry): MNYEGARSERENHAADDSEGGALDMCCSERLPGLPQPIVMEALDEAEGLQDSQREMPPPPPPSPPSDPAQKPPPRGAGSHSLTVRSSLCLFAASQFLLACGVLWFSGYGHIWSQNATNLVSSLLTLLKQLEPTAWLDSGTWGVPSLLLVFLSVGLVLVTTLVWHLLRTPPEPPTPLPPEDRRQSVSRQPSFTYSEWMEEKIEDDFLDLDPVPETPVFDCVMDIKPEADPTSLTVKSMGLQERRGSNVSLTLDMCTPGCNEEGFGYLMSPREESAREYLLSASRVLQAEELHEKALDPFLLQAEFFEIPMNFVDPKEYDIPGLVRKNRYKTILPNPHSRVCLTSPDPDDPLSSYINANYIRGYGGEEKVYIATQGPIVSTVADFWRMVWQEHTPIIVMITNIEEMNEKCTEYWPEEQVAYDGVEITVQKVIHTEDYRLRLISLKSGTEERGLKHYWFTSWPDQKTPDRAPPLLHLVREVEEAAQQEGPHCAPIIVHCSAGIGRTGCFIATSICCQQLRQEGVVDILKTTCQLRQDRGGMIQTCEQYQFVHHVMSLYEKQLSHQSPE

[19] = biological target: T8, Low molecular weight phosphotyrosine protein phosphatase (Homo sapiens, UniProt P24666); type: functional; conditions: read-out: IC50_Mean;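 also: Dose-response confirmation assay measuring inhibition of LMPTP enzyme activity by fluorescence intensity read-out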
T8 sequence (P24666 whole entry): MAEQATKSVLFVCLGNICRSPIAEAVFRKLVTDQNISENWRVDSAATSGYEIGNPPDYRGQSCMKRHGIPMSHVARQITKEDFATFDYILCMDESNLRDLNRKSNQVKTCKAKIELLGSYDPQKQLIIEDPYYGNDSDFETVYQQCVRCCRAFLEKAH

[20] = biological target: T9, Tyrosine-protein phosphatase non-receptor type 11 (Homo sapiens, UniProt Q06124); test: PTPN11 enzyme inhibitors – biochemical, selectivity assay for STEP inhibitor project, dose response (AID 602367); type: functional; conditions: read-out: IC50_Mean
T9 sequence (Q06124 whole entry): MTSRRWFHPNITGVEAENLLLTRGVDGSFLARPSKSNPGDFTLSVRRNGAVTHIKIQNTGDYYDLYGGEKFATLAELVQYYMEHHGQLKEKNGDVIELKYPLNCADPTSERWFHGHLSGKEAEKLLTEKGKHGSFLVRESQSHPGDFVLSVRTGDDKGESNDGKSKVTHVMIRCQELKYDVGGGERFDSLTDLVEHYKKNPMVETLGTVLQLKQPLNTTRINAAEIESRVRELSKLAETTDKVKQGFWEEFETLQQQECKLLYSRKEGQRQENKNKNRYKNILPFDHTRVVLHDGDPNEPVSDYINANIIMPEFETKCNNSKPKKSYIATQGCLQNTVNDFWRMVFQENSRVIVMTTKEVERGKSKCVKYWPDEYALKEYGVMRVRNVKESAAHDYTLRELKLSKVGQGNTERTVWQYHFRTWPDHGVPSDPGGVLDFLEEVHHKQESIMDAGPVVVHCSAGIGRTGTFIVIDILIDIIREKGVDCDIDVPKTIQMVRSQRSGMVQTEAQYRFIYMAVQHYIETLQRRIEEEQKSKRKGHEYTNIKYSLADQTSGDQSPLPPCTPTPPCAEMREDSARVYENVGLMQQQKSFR

T3 sequence (Q9UBE0 whole entry): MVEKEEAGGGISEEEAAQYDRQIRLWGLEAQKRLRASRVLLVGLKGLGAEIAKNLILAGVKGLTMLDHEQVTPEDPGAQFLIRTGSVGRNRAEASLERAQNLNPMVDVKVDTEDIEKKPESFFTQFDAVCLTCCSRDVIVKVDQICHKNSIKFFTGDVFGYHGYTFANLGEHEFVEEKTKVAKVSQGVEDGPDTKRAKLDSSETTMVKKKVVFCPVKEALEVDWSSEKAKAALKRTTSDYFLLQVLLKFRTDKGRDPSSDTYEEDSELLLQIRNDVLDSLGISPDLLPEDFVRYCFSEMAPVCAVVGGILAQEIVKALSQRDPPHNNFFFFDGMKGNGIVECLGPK
T3 sequence (Q9UBT2 whole entry): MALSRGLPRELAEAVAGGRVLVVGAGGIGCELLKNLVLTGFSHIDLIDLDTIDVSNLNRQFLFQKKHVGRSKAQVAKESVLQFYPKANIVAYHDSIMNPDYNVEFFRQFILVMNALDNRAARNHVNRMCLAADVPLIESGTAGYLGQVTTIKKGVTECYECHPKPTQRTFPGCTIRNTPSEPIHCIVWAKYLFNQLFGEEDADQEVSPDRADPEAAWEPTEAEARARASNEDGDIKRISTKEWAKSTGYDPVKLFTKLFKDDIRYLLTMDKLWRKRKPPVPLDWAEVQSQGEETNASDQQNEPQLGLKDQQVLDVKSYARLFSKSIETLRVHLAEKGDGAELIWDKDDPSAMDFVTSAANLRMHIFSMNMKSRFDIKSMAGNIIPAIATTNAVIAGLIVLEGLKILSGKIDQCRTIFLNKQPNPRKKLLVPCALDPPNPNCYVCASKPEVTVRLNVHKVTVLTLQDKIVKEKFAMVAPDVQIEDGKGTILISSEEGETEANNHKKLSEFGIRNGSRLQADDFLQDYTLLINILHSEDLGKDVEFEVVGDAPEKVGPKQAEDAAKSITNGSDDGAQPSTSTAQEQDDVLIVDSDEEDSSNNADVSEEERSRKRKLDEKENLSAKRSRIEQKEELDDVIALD
T2 sequence (P09923 whole entry): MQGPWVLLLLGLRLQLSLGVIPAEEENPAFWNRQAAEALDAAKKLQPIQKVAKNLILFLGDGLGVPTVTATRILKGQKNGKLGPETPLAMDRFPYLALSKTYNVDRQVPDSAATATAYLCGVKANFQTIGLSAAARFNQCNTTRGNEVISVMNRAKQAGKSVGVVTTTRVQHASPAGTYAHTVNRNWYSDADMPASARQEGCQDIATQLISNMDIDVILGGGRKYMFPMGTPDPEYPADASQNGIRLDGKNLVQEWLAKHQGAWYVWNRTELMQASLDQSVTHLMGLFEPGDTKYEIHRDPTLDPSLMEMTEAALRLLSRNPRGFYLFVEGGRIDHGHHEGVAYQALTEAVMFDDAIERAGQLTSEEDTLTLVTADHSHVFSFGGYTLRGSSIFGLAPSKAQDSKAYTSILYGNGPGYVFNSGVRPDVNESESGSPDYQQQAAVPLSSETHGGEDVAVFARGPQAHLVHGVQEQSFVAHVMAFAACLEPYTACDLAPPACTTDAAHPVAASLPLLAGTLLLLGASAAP
Chain of Cytochrome P450 3A4 (P08684 whole entry): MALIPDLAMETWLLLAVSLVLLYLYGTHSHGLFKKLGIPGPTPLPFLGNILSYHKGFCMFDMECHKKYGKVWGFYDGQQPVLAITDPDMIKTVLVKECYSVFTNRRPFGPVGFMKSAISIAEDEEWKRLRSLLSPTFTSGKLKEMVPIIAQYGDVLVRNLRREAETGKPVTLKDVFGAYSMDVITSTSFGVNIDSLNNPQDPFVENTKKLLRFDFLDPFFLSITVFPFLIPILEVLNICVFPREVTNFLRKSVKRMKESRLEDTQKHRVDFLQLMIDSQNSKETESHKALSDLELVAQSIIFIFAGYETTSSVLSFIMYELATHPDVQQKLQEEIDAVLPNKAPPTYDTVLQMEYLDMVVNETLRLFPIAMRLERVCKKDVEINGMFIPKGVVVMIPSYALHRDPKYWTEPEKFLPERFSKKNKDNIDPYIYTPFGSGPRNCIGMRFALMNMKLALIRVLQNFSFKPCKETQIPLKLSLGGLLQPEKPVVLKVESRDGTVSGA
Chain of Intestinal-type alkaline phosphatase (Mus musculus, UniProt P24822) (P24822 whole entry): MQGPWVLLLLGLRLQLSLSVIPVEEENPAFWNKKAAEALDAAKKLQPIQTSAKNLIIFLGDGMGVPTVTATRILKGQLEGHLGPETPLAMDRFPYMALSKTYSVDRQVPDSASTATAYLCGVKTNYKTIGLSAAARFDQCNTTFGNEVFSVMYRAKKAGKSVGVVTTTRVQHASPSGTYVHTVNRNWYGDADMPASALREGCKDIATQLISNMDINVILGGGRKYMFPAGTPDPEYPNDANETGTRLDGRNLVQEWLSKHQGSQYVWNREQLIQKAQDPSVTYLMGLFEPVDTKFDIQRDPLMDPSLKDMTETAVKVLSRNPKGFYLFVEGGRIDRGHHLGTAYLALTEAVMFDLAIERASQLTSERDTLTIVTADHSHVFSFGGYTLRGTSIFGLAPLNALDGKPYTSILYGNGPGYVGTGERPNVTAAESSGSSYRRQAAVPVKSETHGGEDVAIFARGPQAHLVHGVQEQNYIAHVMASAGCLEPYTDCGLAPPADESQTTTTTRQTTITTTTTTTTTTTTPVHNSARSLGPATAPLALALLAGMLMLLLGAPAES
Chain of Cytochrome P450 2C19 (P33261 whole entry): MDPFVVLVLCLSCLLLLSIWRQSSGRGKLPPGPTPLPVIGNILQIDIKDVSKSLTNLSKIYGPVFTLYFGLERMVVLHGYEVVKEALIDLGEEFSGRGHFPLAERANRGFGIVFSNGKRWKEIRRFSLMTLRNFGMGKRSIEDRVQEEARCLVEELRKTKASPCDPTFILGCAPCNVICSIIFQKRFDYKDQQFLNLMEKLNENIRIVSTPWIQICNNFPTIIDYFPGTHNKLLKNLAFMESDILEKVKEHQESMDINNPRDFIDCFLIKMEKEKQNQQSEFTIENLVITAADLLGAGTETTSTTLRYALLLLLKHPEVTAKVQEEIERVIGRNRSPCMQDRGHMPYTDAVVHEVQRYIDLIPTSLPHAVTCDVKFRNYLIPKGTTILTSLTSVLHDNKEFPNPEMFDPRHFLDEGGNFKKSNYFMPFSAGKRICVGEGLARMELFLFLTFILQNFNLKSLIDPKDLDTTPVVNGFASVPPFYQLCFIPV
Chain of Genome polyprotein (Q2Q167 whole entry): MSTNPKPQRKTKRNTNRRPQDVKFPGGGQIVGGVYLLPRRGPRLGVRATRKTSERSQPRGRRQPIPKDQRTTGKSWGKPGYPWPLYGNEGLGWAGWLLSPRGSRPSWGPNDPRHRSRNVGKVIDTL
Chain of Eukaryotic translation initiation factor 4E (P63073 whole entry): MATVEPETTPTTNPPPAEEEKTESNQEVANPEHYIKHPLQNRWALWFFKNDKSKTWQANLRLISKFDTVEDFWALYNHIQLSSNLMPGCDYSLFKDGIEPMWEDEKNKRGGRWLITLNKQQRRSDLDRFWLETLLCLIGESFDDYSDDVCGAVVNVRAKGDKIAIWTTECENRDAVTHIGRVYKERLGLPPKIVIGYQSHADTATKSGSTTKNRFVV
Chain of Dual specificity protein phosphatase 3 (P51452 whole entry, the tested form may be a part): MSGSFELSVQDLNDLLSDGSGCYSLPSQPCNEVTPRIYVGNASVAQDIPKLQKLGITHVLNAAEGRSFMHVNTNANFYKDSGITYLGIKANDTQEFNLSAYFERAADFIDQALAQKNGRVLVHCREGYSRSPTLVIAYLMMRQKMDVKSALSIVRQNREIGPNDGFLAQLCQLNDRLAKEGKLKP
Chain of Cytochrome P450 2C9 (P11712 whole entry): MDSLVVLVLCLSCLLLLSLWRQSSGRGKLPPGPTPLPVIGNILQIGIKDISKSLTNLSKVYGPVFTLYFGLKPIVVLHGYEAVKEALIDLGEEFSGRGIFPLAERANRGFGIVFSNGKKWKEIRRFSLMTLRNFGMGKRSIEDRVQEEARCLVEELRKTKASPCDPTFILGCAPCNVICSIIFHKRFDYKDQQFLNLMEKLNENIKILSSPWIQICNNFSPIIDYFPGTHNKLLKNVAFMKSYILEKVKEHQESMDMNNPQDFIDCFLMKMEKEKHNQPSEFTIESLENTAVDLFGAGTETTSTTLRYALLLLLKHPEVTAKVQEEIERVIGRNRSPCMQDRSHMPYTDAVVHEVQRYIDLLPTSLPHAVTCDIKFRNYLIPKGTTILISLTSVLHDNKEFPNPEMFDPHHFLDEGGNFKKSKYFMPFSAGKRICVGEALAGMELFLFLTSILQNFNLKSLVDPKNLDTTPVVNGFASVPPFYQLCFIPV
Chain of Induced myeloid leukemia cell differentiation protein Mcl-1 (Q07820 whole entry): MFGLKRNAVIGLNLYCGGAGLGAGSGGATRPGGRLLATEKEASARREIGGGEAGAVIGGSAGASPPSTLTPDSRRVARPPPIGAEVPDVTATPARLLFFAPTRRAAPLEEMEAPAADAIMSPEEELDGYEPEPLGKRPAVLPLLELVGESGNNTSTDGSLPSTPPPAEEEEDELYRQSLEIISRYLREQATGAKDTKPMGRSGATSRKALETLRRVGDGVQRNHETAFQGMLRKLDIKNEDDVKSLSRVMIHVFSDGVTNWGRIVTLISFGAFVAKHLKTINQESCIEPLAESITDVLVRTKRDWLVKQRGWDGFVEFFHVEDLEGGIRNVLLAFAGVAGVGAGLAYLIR

CC(C)Oc1ccc(CCC(=O)NNC(=S)NCc2ccccc2)cc1
EC50 [1]: 21.1 µM (active) | IC50 [2]: 60.3 µM (active) | EC50 [3]: 18.8 µM (active) | EC50 [4]: 21.8 µM (active)

CC(=O)c1sc2nc(CSc3nnnn3-c3ccccc3)[nH]c(=O)c2c1C
IC50 (SUMO-activating enzyme [5]): 27.9 µM (active) | IC50 (SUMO-activating enzyme [6]): 6.5 µM (active) | IC50 (Genome polyprotein): > 49.8 µM (not active) | IC50 [7]: 1.71 µM (active) | IC50 [8]: 50 µM (inactive)

COc1ccc2c(=O)c(-c3ccccc3)c(C)oc2c1
AC50 (Cytochrome P450 2C9): 10 µM (inconclusive) | AC50 (Cytochrome P450 3A4): inconclusive

O=C(c1ccccc1)c1c[nH]c(C(=O)NCCCN2CCOCC2)c1
AC50 (Cytochrome P450 1A2): 25.1 µM (inconclusive) | AC50 (Cytochrome P450 3A4): inconclusive | AC50 (Cytochrome P450 2C19): 0.0355 µM (inconclusive)

Cc1cc(N2CCN(C)CC2)nc2ccc(NC(S)=NCCN3CCc4ccccc4C3)cc12
EC50 [9]: 0.683 µM (active) | AC50 [10]: 20.4 µM (active) | IC50 [11]: 4.64 µM (active) | CC50 (Vero): 15.9 µM (active) | IC50 [12]: 4.81 µM (active) | EC50 [13]: > 60 µM (not active)

CCOc1ccc(-c2nc(CSCC(=O)NC(C)CC)c(C)o2)cc1 (centres undefined)
IC50 (Jurkat): > 80 µM (inactive) | IC50 (HEK293 [14]): 35.7 µM (inactive) | IC50 (HEK293 [15]): 74.6 µM (inactive)

OC(c1nc2cc(F)ccc2[nH]1)C(O)c1nc2cc(F)ccc2[nH]1 (centres undefined)
EC50 [1]: 9.85 µM (active) | IC50 [2]: 58.5 µM (active) | EC50 [3]: 4.97 µM (active) | EC50 [4]: 9.13 µM (active)

N=C1S/C(=C\c2ccc(O)cc2)C(=O)N1c1ccc(F)cc1
IC50 [16]: 2.29 µM (active) | IC50 (SUMO-activating enzyme [5]): 23.9 µM (active) | IC50 (SUMO-activating enzyme [6]): 4.87 µM (active) | IC50 [17]: 5.84 µM (active) | IC50 [18]: 14.1 µM (active) | IC50 [19]: 32.9 µM (inactive) | IC50 [20]: 2.2 µM (active)
